From US10125134B2 (Mirati Therapeutics, Inc., priority 2016, dated 2018)
Where two headings read alike, the source gives them in different places.

What was measured:
[1] = test system: NCI-H358 cells (express KRas G12C), Phospho-ERK; assay: Cellular inhibition of KRas G12C: Phospho-ERK in NCI-H358 cells; type: cell-based; settings: pERK(Thr202/Tyr204) normalized with GAPDH, NCI-H358 cells, 3 hours, read-out: IC50
In short: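 IC50 derived by 4-parameter fit of GAPDH-normalized pERK(Thr202/Tyr204) signal, as percent of DMSO control. Signal came from in-cell immunodetection with infrared secondaries after 3 h compound exposure of KRas G12C NCI-H358 cells at 0.5% DMSO.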

KRas G12C = KRas G12C (Homo sapiens, UniProt P01116, C118S/C51S/C80L/G12C); assay: KRas G12C Modification Assay (LCMS detection of covalent adduct); type: binding; settings: normalized percent of control; tested at 5 μM concentration for 3 hours
In short: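 Covalent modification was read by reverse-phase LC/MS of intact protein after compound exposure, each reaction stopped at its time point with 25 mM acetic acid. Unmodified-protein signal, taken as percent of total, was normalised to untreated protein and reported as POC.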

With `Cc1cccc(N2CCc3c(nc(OC[C@@H]4C[C@@H](F)CN4C)nc3N3CCN(C(=O)/C=C/CN(C)C)[C@@H](CC#N)C3)C2)c1C` [Example 436, 2-((S)-1-((E)-4-(dimethylamino)but-2-enoyl)-4-(7-(2,3-dimethylphenyl)-2-(((2S,4R)-4-fluoro-1-methylpyrrolidin-2-yl)methoxy)-5,6,7,8-tetrahydropyrido[3,4-d]pyrimidin-4-yl)piperazin-2-yl)acetonitrile] the IC50 ([1]; Homo sapiens) was 0.1 to 1000 nM and the POC (KRas G12C) was “C (“C”>50% POC)”.

With `C=CC(=O)N1CCN(c2nc(O[C@H](C)CN(C)C)nc3c2CCN(c2c(C)ccc4[nH]ncc24)C3)CC1` [Example 162, 1-[4-[2-[(1R)-2-(dimethylamino)-1-methyl-ethoxy]-7-(5-methyl-1H-indazol-4-yl)-6,8-dihydro-5H-pyrido[3,4-d]pyrimidin-4-yl]piperazin-1-yl]prop-2-en-1-one] the IC50 ([1]; Homo sapiens) was greater than 1000 nM and the POC (KRas G12C) was “B (“B”>25% POC−≤50% POC)”.

For `CC#CC(=O)N1CCN(c2nc(OC[C@@H]3CCCN3C)nc3c2CCN(c2cccc4ccccc24)C3)CC1CC#N` (stereo partly drawn) [Example 376, 2-(1-(but-2-ynoyl)-4-(2-(((S)-1-methylpyrrolidin-2-yl)methoxy)-7-(naphthalen-1-yl)-5,6,7,8-tetrahydropyrido[3,4-d]pyrimidin-4-yl)piperazin-2-yl)acetonitrile 2,2,2-trifluoroacetate], the IC50 ([1]; Homo sapiens, NCI-H358, 3 h) was 0.1 to 1000 nM and the POC (KRas G12C) was “C (“C”>50% POC)”.

In the case of `C=CC(=O)N1CCN(c2nc(OC[C@H]3CCCN3C)nc3c2CCN(c2cc(O)cc4ccccc24)C3)C[C@@H]1CC#N` [Example 344, 2-[(2S)-4-[7-(3-hydroxy-1-naphthyl)-2-[[(2R)-1-methylpyrrolidin-2-yl]methoxy]-6,8-dihydro-5H-pyrido[3,4-d]pyrimidin-4-yl]-1-prop-2-enoyl-piperazin-2-yl]acetonitrile], the IC50 ([1]; Homo sapiens, NCI-H358, 3 h) is reported as 0.1 to 1000 nM and the POC (KRas G12C) is reported as “C (“C”>50% POC)”.

In the case of `C=CC(=O)N1CCN(c2nc(OC[C@@H]3CCCN3CC)nc3c2CCN(c2cccc(Cl)c2C(F)(F)F)C3)C[C@@H]1CC#N` [Example 339, 2-((S)-1-acryloyl-4-(7-(3-chloro-2-(trifluoromethyl)phenyl)-2-(((S)-1-ethylpyrrolidin-2-yl)methoxy)-5,6,7,8-tetrahydropyrido[3,4-d]pyrimidin-4-yl)piperazin-2-yl)acetonitrile], the IC50 ([1]; Homo sapiens, NCI-H358, 3 h) is reported as 0.1 to 1000 nM and the POC (KRas G12C) is reported as “C (“C”>50% POC)”.

With `C=CC(=O)N1CCN(c2nc(OC[C@@H]3CCCN3C)nc3c2CCN(c2cccc4ccc(F)cc24)C3)CC1CC#N` (stereo partly drawn) [Example 302] the IC50 ([1]; Homo sapiens, NCI-H358, 3 h) was 0.1 to 1000 nM and the POC (KRas G12C) was “C (“C”>50% POC)”.

With `C=CC(=O)N1CCN(c2nc(OCC3CCN(C4CCCCC4)C3)nc3c2CCN(c2cc(O)cc4ccccc24)C3)CC1` (stereo not drawn) [Example 132, 1-[4-[2-[(1-cyclohexylpyrrolidin-3-yl)methoxy]-7-(3-hydroxy-1-naphthyl)-6,8-dihydro-5H-pyrido[3,4-d]pyrimidin-4-yl]piperazin-1-yl]prop-2-en-1-one] the IC50 ([1]; Homo sapiens, NCI-H358, 3 h) was 0.1 to 1000 nM and the POC (KRas G12C) was “C (“C”>50% POC)”.

For `C=CC(=O)N1CCN(c2nc(OCCCN3CCC(OC)C3)nc3c2CCN(c2cc(O)cc4ccccc24)C3)CC1` (stereo not drawn) [Example 137, 1-[4-[7-(3-hydroxy-1-naphthyl)-2-[3-(3-methoxypyrrolidin-1-yl)propoxy]-6,8-dihydro-5H-pyrido[3,4-d]pyrimidin-4-yl]piperazin-1-yl]prop-2-en-1-one], the IC50 ([1]; Homo sapiens, NCI-H358, 3 h) was greater than 1000 nM and the POC (KRas G12C) was “C (“C”>50% POC)”.

For `C=CC(=O)N1CCN(c2nc(OC[C@@H]3CCCN3C)nc3c2CCN(c2cc(O)cc4ccccc24)C3)C(CO)C1` (stereo partly drawn) [Example 169, 1-[3-(hydroxymethyl)-4-[7-(3-hydroxy-1-naphthyl)-2-[[(2S)-1-methylpyrrolidin-2-yl]methoxy]-6,8-dihydro-5H-pyrido[3,4-d]pyrimidin-4-yl]piperazin-1-yl]prop-2-en-1-one], the IC50 ([1]; Homo sapiens, NCI-H358, 3 h) was 0.1 to 1000 nM and the POC (KRas G12C) was “C (“C”>50% POC)”.

With `C=CC(=O)N1CCN(c2nc(OC[C@@H]3CCCN3C)nc3c2CCN(c2cncc(F)c2C(F)(F)F)C3)C[C@@H]1CC#N` [Example 383, 2-((S)-1-acryloyl-4-(7-(5-fluoro-4-(trifluoromethyl)pyridin-3-yl)-2-(((S)-1-methylpyrrolidin-2-yl)methoxy)-5,6,7,8-tetrahydropyrido[3,4-d]pyrimidin-4-yl)piperazin-2-yl)acetonitrile] the IC50 ([1]; Homo sapiens, NCI-H358, 3 h) was 0.1 to 1000 nM and the POC (KRas G12C) was “C (“C”>50% POC)”.

`C=CC(=O)N1CCN(c2nc(OC[C@@H]3CCC(=O)N3)nc3c2CCN(c2cc(O)cc4ccccc24)C3)CC1` [Example 57, (S)-5-(((4-(4-acryloylpiperazin-1-yl)-7-(3-hydroxynaphthalen-1-yl)-5,6,7,8-tetrahydropyrido[3,4-d]pyrimidin-2-yl)oxy)methyl)pyrrolidin-2-one] was tested, and the IC50 ([1]; Homo sapiens, NCI-H358, 3 h) was greater than 1000 nM and the POC (KRas G12C) was “C (“C”>50% POC)”.

With `C=CC(=O)N1CCN(c2nc(OC[C@@H]3CCCN3C)nc3c2CCN(c2ccc(F)cc2C(F)(F)F)C3)CC1CC#N` (stereo partly drawn) [Example 412, 2-(1-acryloyl-4-(7-(4-fluoro-2-(trifluoromethyl)phenyl)-2-(((S)-1-methylpyrrolidin-2-yl)methoxy)-5,6,7,8-tetrahydropyrido[3,4-d]pyrimidin-4-yl)piperazin-2-yl)acetonitrile] the IC50 [1] was 0.1 to 1000 nM and the POC (KRas G12C) was “C (“C”>50% POC)”.

In the case of `C=CC(=O)N1CCN(c2nc(OC[C@@H]3CCCN3C)nc3c2CCN(c2cccc(C)c2C(F)(F)F)C3)C[C@@H]1CC#N` [Example 364, 2-[(2S)-4-[2-[[(2S)-1-methylpyrrolidin-2-yl]methoxy]-7-[3-methyl-2-(trifluoromethyl)phenyl]-6,8-dihydro-5H-pyrido[3,4-d]pyrimidin-4-yl]-1-prop-2-enoyl-piperazin-2-yl]acetonitrile], the IC50 ([1]; Homo sapiens, NCI-H358, 3 h) is reported as 0.1 to 1000 nM and the POC (KRas G12C) is reported as “C (“C”>50% POC)”.

In the case of `C=CC(=O)N1CCN(c2nc(OCC3CCN(CCOC)C3)nc3c2CCN(c2cc(O)cc4ccccc24)C3)CC1` (stereo not drawn) [Example 103, 1-(4-(7-(3-hydroxynaphthalen-1-yl)-2-((1-(2-methoxyethyl)pyrrolidin-3-yl)methoxy)-5,6,7,8-tetrahydropyrido[3,4-d]pyrimidin-4-yl)piperazin-1-yl)prop-2-en-1-one], the IC50 ([1]; Homo sapiens, NCI-H358, 3 h) is reported as 0.1 to 1000 nM and the POC (KRas G12C) is reported as “C (“C”>50% POC)”.

In the case of `C=CC(=O)N1CCN(c2nc(O[C@H](C)CN(C)C)nc3c2CCN(c2c(O)ccc(C)c2F)C3)CC1` [Example 84, (R)-1-(4-(2-((1-(dimethylamino)propan-2-yl)oxy)-7-(2-fluoro-6-hydroxy-3-methylphenyl)-5,6,7,8-tetrahydropyrido[3,4-d]pyrimidin-4-yl)piperazin-1-yl)prop-2-en-1-one], the IC50 ([1]; Homo sapiens) is reported as greater than 1000 nM and the POC (KRas G12C) is reported as “A (“A”≤25% POC)”.

`C=CC(=O)N1CCN(c2nc(OC[C@@H]3CCCN3C)nc3c2CCN(c2cccc(F)c2C(F)(F)F)C3)CC1CC#N` (stereo partly drawn) [Example 230, 2-(1-acryloyl-4-(7-(3-fluoro-2-(trifluoromethyl)phenyl)-2-(((S)-1-methylpyrrolidin-2-yl)methoxy)-5,6,7,8-tetrahydropyrido[3,4-d]pyrimidin-4-yl)piperazin-2-yl)acetonitrile] was tested, and the IC50 ([1]; Homo sapiens, NCI-H358, 3 h) was 0.1 to 1000 nM and the POC (KRas G12C) was “C (“C”>50% POC)”.

With `C=CC(=O)N1CCN(c2nc(OC[C@@H]3CCCN3C)nc3c2CCN(c2cccc4ccccc24)C3)[C@H](C)C1` [Example 353, 1-[(3R)-3-methyl-4-[2-[[(2S)-1-methylpyrrolidin-2-yl]methoxy]-7-(1-naphthyl)-6,8-dihydro-5H-pyrido[3,4-d]pyrimidin-4-yl]piperazin-1-yl]prop-2-en-1-one] the IC50 ([1]; Homo sapiens, NCI-H358, 3 h) was greater than 1000 nM and the POC (KRas G12C) was “C (“C”>50% POC)”.

With `C=CC(=O)N1CCN(c2nc(OCCN3CCC(F)(F)CC3)nc3c2CCN(c2cccc4cccc(Cl)c24)C3)C[C@@H]1CC#N` [Example 452, 2-[(2S)-4-[7-(8-chloro-1-naphthyl)-2-[2-(4,4-difluoro-1-piperidyl)ethoxy]-6,8-dihydro-5H-pyrido[3,4-d]pyrimidin-4-yl]-1-prop-2-enoyl-piperazin-2-yl]acetonitrile] the IC50 ([1]; Homo sapiens, NCI-H358, 3 h) was 0.1 to 1000 nM and the POC (KRas G12C) was “C (“C”>50% POC)”.

In the case of `C=CC(=O)N1CCN(c2nc(OCCN3CCCCC3)nc3c2CCN(c2cccc4ccccc24)C3)CC1CC#N` (stereo not drawn) [Example 303, 2-[4-[7-(1-naphthyl)-2-[2-(1-piperidyl)ethoxy]-6,8-dihydro-5H-pyrido[3,4-d]pyrimidin-4-yl]-1-prop-2-enoyl-piperazin-2-yl]acetonitrile], the IC50 ([1]; Homo sapiens, NCI-H358, 3 h) is reported as 0.1 to 1000 nM and the POC (KRas G12C) is reported as “C (“C”>50% POC)”.

In the case of `C=CC(=O)N1CCN(c2nc(OC[C@@H]3C[C@@H](F)CN3C(C)C)nc3c2CCN(c2cncc(F)c2C(F)(F)F)C3)C[C@@H]1CC#N` [Example 386, 2-((S)-1-acryloyl-4-(2-(((2S,4R)-4-fluoro-1-isopropylpyrrolidin-2-yl)methoxy)-7-(5-fluoro-4-(trifluoromethyl)pyridin-3-yl)-5,6,7,8-tetrahydropyrido[3,4-d]pyrimidin-4-yl)piperazin-2-yl)acetonitrile], the IC50 ([1]; Homo sapiens) is reported as 0.1 to 1000 nM and the POC (KRas G12C) is reported as “C (“C”>50% POC)”.

For `C=CC(=O)N1CCN(c2nc(OC[C@@H]3CCCN3C)nc3c2CCN(c2cncc(Cl)c2C)C3)C[C@@H]1CC#N` [Example 387, 2-((S)-1-acryloyl-4-(7-(5-chloro-4-methylpyridin-3-yl)-2-(((S)-1-methylpyrrolidin-2-yl)methoxy)-5,6,7,8-tetrahydropyrido[3,4-d]pyrimidin-4-yl)piperazin-2-yl)acetonitrile], the IC50 ([1]; Homo sapiens, NCI-H358, 3 h) was 0.1 to 1000 nM and the POC (KRas G12C) was “C (“C”>50% POC)”.
